Source: patent publication US8426409B2, “Inhibitors of Bruton's tyrosine kinase” (Roche Palo Alto LLC, priority 2008, dated 2013)

Biological target: T1, Btk enzyme (His-tagged, full-length) (Homo sapiens, UniProt Q06187)
T1 construct: 5-10 nM Btk enzyme (His-tagged, full-length); His
Assay: Bruton's Tyrosine Kinase (Btk) Inhibition Assay (33P filtration capture)
Type: biochemical
Settings: 100 μM ATP, 30 μM biotinylated peptide substrate, 30 min at 30° C.
Text: The assay is a capture of radioactive ^33P phosphorylated product through filtration. The interactions of Btk, biotinylated SH2 peptide substrate (Src homology), and ATP lead to phosphorylation of the peptide substrate. Biotinylated product is bound streptavidin sepharose beads. All bound, radiolabeled products are detected by scintillation counter.
Plates assayed are 96-well polypropylene (Greiner) and 96-well 1.2 μm hydrophilic PVDF filter plates (Millipore). Concentrations reported here are final assay concentrations: 10-100 μM compounds in DMSO (Burdick and Jackson), 5-10 nM Btk enzyme (His-tagged, full-length), 30 μM peptide substrate (Biotin-Aca-AAAEEIYGEI-NH2), 100 μM ATP (Sigma), 8 mM imidazole (Sigma, pH 7.2), 8 mM glycerol-2-phosphate (Sigma), 200 μM EGTA (Roche Diagnostics), 1 mM MnCl2 (Sigma), 20 mM MgCl2 (Sigma), 0.1 mg/ml BSA (Sigma), 2 mM DTT (Sigma), 1 μCi ^33P ATP (Amersham), 20% streptavidin sepharose beads (Amersham), 50 mM EDTA (Gibco), 2 M NaCl (Gibco), 2 M NaCl w/1% phosphoric acid (Gibco), microscint-20 (Perkin Elmer).
IC50 determinations are calculated from 10 data points per compound utilizing data produced from a standard 96-well plate assay template. […] Background was counted in the absence of peptide substrate. Total activity was determined in the presence of peptide substrate. […]

T1 sequence (Q06187 whole entry): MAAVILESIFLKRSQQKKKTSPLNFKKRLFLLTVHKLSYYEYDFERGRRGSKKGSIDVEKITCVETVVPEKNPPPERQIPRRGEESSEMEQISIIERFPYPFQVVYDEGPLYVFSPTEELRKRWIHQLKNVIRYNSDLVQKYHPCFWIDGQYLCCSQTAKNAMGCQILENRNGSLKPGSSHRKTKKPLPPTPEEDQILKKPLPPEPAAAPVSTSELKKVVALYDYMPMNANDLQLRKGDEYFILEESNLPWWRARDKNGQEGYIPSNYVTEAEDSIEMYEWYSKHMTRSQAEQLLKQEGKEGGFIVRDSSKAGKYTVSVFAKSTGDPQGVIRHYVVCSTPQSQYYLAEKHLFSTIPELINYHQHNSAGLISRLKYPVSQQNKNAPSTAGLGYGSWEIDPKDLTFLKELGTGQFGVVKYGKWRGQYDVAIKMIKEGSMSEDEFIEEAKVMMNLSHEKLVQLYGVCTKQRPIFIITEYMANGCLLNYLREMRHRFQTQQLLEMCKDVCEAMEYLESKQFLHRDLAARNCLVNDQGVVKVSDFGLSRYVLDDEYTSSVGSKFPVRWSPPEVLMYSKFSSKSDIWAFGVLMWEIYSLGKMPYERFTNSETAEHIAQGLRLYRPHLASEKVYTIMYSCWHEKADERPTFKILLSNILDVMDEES

For `O=C(c1ccc(Nc2nc(-c3cccc(N4CCc5cc(C6CC6)ccc5C4=O)c3CO)cn3ccnc23)cc1)N1CCOCC1` [II-1, 6-Cyclopropyl-2-(2-hydroxymethyl-3-{8-[4-(morpholine-4-carbonyl)-phenylamino]-imidazo[1,2-a]pyrazin-6-yl}-phenyl)-3,4-dihydro-2H-isoquinolin-1-one], the IC50 was 25 nM.

In the case of `O=C1c2ccc(C3CC3)cc2CCN1c1cccc(-c2cn3ccnc3c(Nc3ccc(CN4CCOCC4)cc3)n2)c1CO` [II-2, 6-Cyclopropyl-2-{2-hydroxymethyl-3-[8-(4-morpholin-4-ylmethyl-phenylamino)-imidazo[1,2-a]pyrazin-6-yl]-phenyl}-3,4-dihydro-2H-isoquinolin-1-one], the IC50 is reported as 37 nM.
